In ChEMBL document CHEMBL3885881, “DrugMatrix”:

Species: Rattus norvegicus
Assay: DrugMatrix - Regimen: Daily Repeat
Format: toxicity, organism-based, Sprague-Dawley
Design: regimen Daily Repeat, gender Male, age 6-8 weeks
Conditions: in vivo, po, route oral GAVAGE, vehicle .5 % CMC; for ABSOLUTE BASOPHIL / ABSOLUTE EOSINOPHIL / ABSOLUTE LYMPHOCYTE / ABSOLUTE MONOCYTE / ABSOLUTE SEGMENTED NEUTROPHIL / BASOPHIL / EOSINOPHIL / ERYTHROCYTE COUNT / HEMATOCRIT / HEMOGLOBIN / LEUKOCYTE COUNT / LYMPHOCYTE / MEAN CORPUSCULAR HEMOGLOBIN / MEAN CORPUSCULAR HEMOGLOBIN CONCENTRATION / MEAN CORPUSCULAR VOLUME / MONOCYTE / NEUTROPHIL / NUCLEATED RED BLOOD CELLS / PLATELET COUNT: tissue Blood; for ALANINE AMINOTRANSFERASE / ALBUMIN / ASPARTATE AMINOTRANSFERASE / BLOOD UREA NITROGEN / CARBON DIOXIDE / CHLORIDE / CHOLESTEROL / CREATINE PHOSPHOKINASE / CREATININE / GLUCOSE / LACTATE DEHYDROGENASE / LIPASE / POTASSIUM / SODIUM / TOTAL BILIRUBIN / TOTAL PROTEIN / URIC ACID: tissue Plasma
[1] = 47 mg/kg, 72 h, dose level Low, time 3 day
[2] = 47 mg/kg, 120 h, dose level Low, time 5 day
[3] = 500 mg/kg, 72 h, dose level High, time 3 day
[4] = 500 mg/kg, 120 h, dose level High, time 5 day

OCCOCCN1CCN(C2=Nc3ccccc3Sc3ccccc32)CC1 [QUETIAPINE]
ABSOLUTE BASOPHIL [1]: 0 CELLS/uL
ABSOLUTE EOSINOPHIL [1]: 0 CELLS/uL
ABSOLUTE LYMPHOCYTE [1]: 7521.33 CELLS/uL
ABSOLUTE MONOCYTE [1]: 22.33 CELLS/uL
ABSOLUTE SEGMENTED NEUTROPHIL [1]: 789.67 CELLS/uL
BASOPHIL [1]: 0%
EOSINOPHIL [1]: 0%
ERYTHROCYTE COUNT [1]: 5.57 x10E6/uL
HEMATOCRIT [1]: 34.3%
HEMOGLOBIN [1]: 13.87 G/DL
LEUKOCYTE COUNT [1]: 8.33 x10E3/uL
LYMPHOCYTE [1]: 90.33%
MEAN CORPUSCULAR HEMOGLOBIN [1]: 24.93 pg
MEAN CORPUSCULAR HEMOGLOBIN CONCENTRATION [1]: 40.43 G/DL
MEAN CORPUSCULAR VOLUME [1]: 61.7 fL
MONOCYTE [1]: 0.33%
NEUTROPHIL [1]: 9.33%
NUCLEATED RED BLOOD CELLS [1]: 0.33 /100WBC
PLATELET COUNT [1]: 1115.67 x10E3/uL
ALANINE AMINOTRANSFERASE [1]: 48.33 u/L
ALBUMIN [1]: 4.63 G/DL
ASPARTATE AMINOTRANSFERASE [1]: 64.67 u/L
BLOOD UREA NITROGEN [1]: 15.33 mg/dL
CARBON DIOXIDE [1]: 31 mmol/L
CHLORIDE [1]: 101 MEQ/L
CHOLESTEROL [1]: 78.33 mg/dL
CREATINE PHOSPHOKINASE [1]: 126.33 u/L
CREATININE [1]: 0.17 mg/dL
GLUCOSE [1]: 143.33 mg/dL
LACTATE DEHYDROGENASE [1]: 116.33 u/L
LIPASE [1]: 12 u/L
POTASSIUM [1]: 6.23 MEQ/L
SODIUM [1]: 148.9 MEQ/L
TOTAL BILIRUBIN [1]: 0.2 mg/dL
TOTAL PROTEIN [1]: 6.03 G/DL
URIC ACID [1]: 1.03 mg/dL
ABSOLUTE BASOPHIL [2]: 0 CELLS/uL
ABSOLUTE EOSINOPHIL [2]: 0 CELLS/uL
ABSOLUTE LYMPHOCYTE [2]: 13853.67 CELLS/uL
ABSOLUTE MONOCYTE [2]: 281 CELLS/uL
ABSOLUTE SEGMENTED NEUTROPHIL [2]: 1032 CELLS/uL
BASOPHIL [2]: 0%
EOSINOPHIL [2]: 0%
ERYTHROCYTE COUNT [2]: 6.08 x10E6/uL
HEMATOCRIT [2]: 38.03%
HEMOGLOBIN [2]: 15.07 G/DL
LEUKOCYTE COUNT [2]: 15.17 x10E3/uL
LYMPHOCYTE [2]: 91.33%
MEAN CORPUSCULAR HEMOGLOBIN [2]: 24.83 pg
MEAN CORPUSCULAR HEMOGLOBIN CONCENTRATION [2]: 39.6 G/DL
MEAN CORPUSCULAR VOLUME [2]: 62.6 fL
MONOCYTE [2]: 2%
NEUTROPHIL [2]: 6.67%
NUCLEATED RED BLOOD CELLS [2]: 0 /100WBC
PLATELET COUNT [2]: 1335.33 x10E3/uL
ALANINE AMINOTRANSFERASE [2]: 39.33 u/L
ALBUMIN [2]: 4.63 G/DL
ASPARTATE AMINOTRANSFERASE [2]: 90.67 u/L
BLOOD UREA NITROGEN [2]: 20 mg/dL
CARBON DIOXIDE [2]: 25 mmol/L
CHLORIDE [2]: 96.67 MEQ/L
CHOLESTEROL [2]: 61.33 mg/dL
CREATINE PHOSPHOKINASE [2]: 403.67 u/L
CREATININE [2]: 0.22 mg/dL
GLUCOSE [2]: 148 mg/dL
LACTATE DEHYDROGENASE [2]: 287 u/L
LIPASE [2]: 9.33 u/L
POTASSIUM [2]: 7.45 MEQ/L
SODIUM [2]: 142.07 MEQ/L
TOTAL BILIRUBIN [2]: 0.13 mg/dL
TOTAL PROTEIN [2]: 6.67 G/DL
URIC ACID [2]: 2.17 mg/dL
ABSOLUTE BASOPHIL [3]: 0 CELLS/uL
ABSOLUTE EOSINOPHIL [3]: 0 CELLS/uL
ABSOLUTE LYMPHOCYTE [3]: 9655.67 CELLS/uL
ABSOLUTE MONOCYTE [3]: 233.67 CELLS/uL
ABSOLUTE SEGMENTED NEUTROPHIL [3]: 577.33 CELLS/uL
BASOPHIL [3]: 0%
EOSINOPHIL [3]: 0%
ERYTHROCYTE COUNT [3]: 5.61 x10E6/uL
HEMATOCRIT [3]: 34.93%
HEMOGLOBIN [3]: 14.17 G/DL
LEUKOCYTE COUNT [3]: 10.47 x10E3/uL
LYMPHOCYTE [3]: 92.67%
MEAN CORPUSCULAR HEMOGLOBIN [3]: 25.27 pg
MEAN CORPUSCULAR HEMOGLOBIN CONCENTRATION [3]: 40.53 G/DL
MEAN CORPUSCULAR VOLUME [3]: 62.27 fL
MONOCYTE [3]: 2%
NEUTROPHIL [3]: 5.33%
NUCLEATED RED BLOOD CELLS [3]: 0 /100WBC
PLATELET COUNT [3]: 1122.67 x10E3/uL
ALANINE AMINOTRANSFERASE [3]: 50.33 u/L
ALBUMIN [3]: 4.3 G/DL
ASPARTATE AMINOTRANSFERASE [3]: 75 u/L
BLOOD UREA NITROGEN [3]: 16.67 mg/dL
CARBON DIOXIDE [3]: 26.33 mmol/L
CHOLESTEROL [3]: 46.67 mg/dL
CREATINE PHOSPHOKINASE [3]: 448 u/L
CREATININE [3]: 0.21 mg/dL
GLUCOSE [3]: 138 mg/dL
LACTATE DEHYDROGENASE [3]: 232.33 u/L
LIPASE [3]: 8 u/L
POTASSIUM [3]: 6.14 MEQ/L
SODIUM [3]: 143.73 MEQ/L
TOTAL BILIRUBIN [3]: 0.23 mg/dL
TOTAL PROTEIN [3]: 5.57 G/DL
URIC ACID [3]: 1.33 mg/dL
ABSOLUTE BASOPHIL [4]: 0 CELLS/uL
ABSOLUTE EOSINOPHIL [4]: 0 CELLS/uL
ABSOLUTE LYMPHOCYTE [4]: 15536 CELLS/uL
ABSOLUTE MONOCYTE [4]: 318.67 CELLS/uL
ABSOLUTE SEGMENTED NEUTROPHIL [4]: 1612 CELLS/uL
BASOPHIL [4]: 0%
EOSINOPHIL [4]: 0%
ERYTHROCYTE COUNT [4]: 6.23 x10E6/uL
HEMATOCRIT [4]: 37.83%
HEMOGLOBIN [4]: 15.17 G/DL
LEUKOCYTE COUNT [4]: 17.47 x10E3/uL
LYMPHOCYTE [4]: 89%
MEAN CORPUSCULAR HEMOGLOBIN [4]: 24.33 pg
MEAN CORPUSCULAR HEMOGLOBIN CONCENTRATION [4]: 40.1 G/DL
MEAN CORPUSCULAR VOLUME [4]: 60.67 fL
MONOCYTE [4]: 1.67%
NEUTROPHIL [4]: 9.33%
NUCLEATED RED BLOOD CELLS [4]: 0 /100WBC
PLATELET COUNT [4]: 1152.33 x10E3/uL
ALANINE AMINOTRANSFERASE [4]: 50.33 u/L
ALBUMIN [4]: 4.37 G/DL
ASPARTATE AMINOTRANSFERASE [4]: 71 u/L
BLOOD UREA NITROGEN [4]: 20 mg/dL
CARBON DIOXIDE [4]: 25 mmol/L
CHLORIDE [4]: 103 MEQ/L
CHOLESTEROL [4]: 56.67 mg/dL
CREATINE PHOSPHOKINASE [4]: 184.33 u/L
CREATININE [4]: 0.29 mg/dL
GLUCOSE [4]: 154 mg/dL
LACTATE DEHYDROGENASE [4]: 150.67 u/L
LIPASE [4]: 8.67 u/L
POTASSIUM [4]: 6.89 MEQ/L
SODIUM [4]: 145 MEQ/L
TOTAL BILIRUBIN [4]: 0.2 mg/dL
TOTAL PROTEIN [4]: 6.13 G/DL
URIC ACID [4]: 2.13 mg/dL
